Usually ED50 stands for the dose at which the effect has come halfway, by size or by number of responders.

Where two headings read alike, the source gives them in different places.

One series relates to male mice. Particulars: mouse, in vivo, 1440 min. As for the experimental part:
1. Determination of Minimum Toxic Dose
Male mice weighing 20 to 25 g are administered per os and i.p. maximum doses of 300 mg/kg of the test substances. The animals are carefully observed for three hours for toxic symptoms. During a period of 24 hours following the administration all symptoms and deaths are recorded. Side reactions are likewise observed and recorded. When death or strong toxic symptoms are observed, further mice are administered increasingly smaller doses. The lowest dose which produces death or strong toxic symptoms is given as the minimum toxic dose.

Series [1] has as its system female Wistar rats. Nature of the series: CAR-test (conditioned avoidance response) in rats, antipsychotic properties. The format is in vivo. Particulars: po, 1 h, rat, per os, one hour prior to testing. As for the experimental part:
2. Evaluation of antipsychotic properties in the CAR-test procedure in rats.
The CAR test is performed in a modification of the experimental set up described by Capaldi et al (see R. D. Myers (ed): Methods in Psychobiology, Academic Press, New York, pp. 71-74). Fully automated one-way shuttle boxes are used, which are divided into 2 compartments by a wall with a hole. The floor of the box is a grid of stainless steel through which electric stimuli can be delivered. The ceiling of the box is provided with a lamp and a loudspeaker giving a buzzertone. In order to avoid the electric stimulus in the first starting compartment the animals can cross over into the safe second compartment.
During the test procedure the animals are placed into the starting compartment and at the same time the light and the loudspeaker are switched on as a warning signal (=conditioned stimulus). If at this warning signal already the animals cross over into the safe compartment, this is considered a CAR and is automatically recorded. If the animals don't cross over into the safe compartment within 5 sec. an electric shock is delivered additionally through the floor grid (=unconditioned stimulus) for a period of up to 15 sec. If at the presentation of the electric shock the animals cross over into the safe compartment, this is considered an unconditioned escape response (=UER). As soon as the animals have crossed over into the safe compartment the stimuli are switched off automatically.
For the test female Wistar rats having a body weight of 140-210 g are used. They are trained in a 20 trial session on the day before and only such animals which show CAR exclusively are used for the drug experiments.
Groups of 4 animals are used for each dose of the test compounds, the animals are placed into the test situation 15 times each, and the average value of the last 10 trials is taken into account.
The test compounds are administered per os in a volume of 10 ml/kg of 2% tylose solution one hour prior to testing. To a control group tylose solution only is administered. The dose which reduces CAR by 50% and thus leads to a 50% avoidance block is determined (=ED50 AB). Furthermore the dosis which reduces UER by 50% and thus leads to a 50% escape block is determined (=ED50 EB).

Series [2] deals with female Wistar rats. Nature of the series: Behavioral changes of rats in punishment conflict situation (Skinner box), anxiolytic properties. To be noted: po, 1 h. The series is classed as in vivo, rat. The procedure: 4. Evaluation of anxiolytic properties.
For evaluating the anxiolytic properties of the compounds a modified method according to Davidson et al (see The Benzodiazepines, Raven Press New York 1973 pp 327-345) is used, whereby the ability of the compounds to change the behavior of rats in a punishment conflict situation is examined.
In order to create the conflict situation the following experimental set up and procedure are used:
The tests are performed in Skinner boxes which are provided with an electrifyable grid-floor, a lever which has to be pressed by the rat, an automatic feeder and 2 different light sources. Female Wistar rats having a body weight of 180-300 g are used. Prior to testing the animals are trained to obtain food by pressing the lever, whereby 2 phases of different conditions alternate. The two phases are distinguished by different lightening. During one phase a food reward is given at a fixed ratio after each 10th lever press (=FR 10), yet simultaneous by with the food pellet an electric food shock punishment is delivered. During the other phase food reward is obtained without any electric punishment, yet lever pressing is rewarded with a food pellet far less frequently and at varying time intervals only (average interval 30 sec=VI30). During each […]. trial session […] alternate with 6 FP10 phases (120 sec. each).
For testing the compounds each animal is subjected to the 47 min. test procedure once a day on 4 consecutive days always at the same time. On days 1, 2 and 3 the animals are given per os 10 ml/kg of 2% tylose soluton 60 min. prior to test begin. On day 4 they are given a dose of the test compound in the tylose solution. For each animal the number of lever press responses in the punished FR10 phases and in the unpunished VI30 phases are recorded seperately for each day. For each animal the mean values from the results of the first three days are taken as control values. The results from the 4th day are compared with these control values. The lowest doses which produce significant changes in the number of lever presses are determined for the unpunished phase and for the punished phase as the minimum effective doses (=MEDup and MEpp). Increased activity during the punished phase is due to anxiolytic effects of the test compound. Reduced activity during the unpunished phase is an indication of sedative effects of the compound.

The subject of a further series is male NMRI-mice. Nature of the series: Inducement of head-shaking syndrome in mice by interaction with subthreshold dose of 5-HTP, antidepressive properties. The series is classed as in vivo. Particulars: mouse, p.o.; pargyline 25 mg/kg i.p. pretreatment, 50 mg/kg 5-HTP i.p.; 60 min. The procedure: 3. Evaluation of antidepressive properties.
This effect is typical of antidepressives. For this a modified method according to Corne et al (see Br.J.Pharmacol. 20, pp 106-120) is used to determine the ability of the compounds to induce a head-shaking syndrome in mice in interaction with a subthreshold dose of 5-HTP.
Male NMRI-mice having a body weight of 20-30 g are used. 60 min. prior to administration of the test compounds the animals are given an i.p. injection of 25 mg/kg of the MAO-inhibitor pargyline dissolved in a volume of 10 ml/kg of 2% tylose solution. Groups of 20 animals are used for each dose of the test compounds. The test compounds are administered per os in a volume of 10 ml/kg of 2% tylose solution. After 30 min. 50 mg/kg 5-HTP in a volume of 10 ml/kg of 2% tylose solution are injected i.p. and each animal is placed in a case individually. A group of control animals receives only the pargyline injection, the 5-HTP injection and 2% tylose solution p.o.
60 min. after administration of the test compounds (=30 min. after 5-HTP injection) the animals are observed for 120 sec. in order to check, whether or not the head-shaking-syndrome occurs.
The ED50 is defined as the dose at which the number of animals showing a head-shake-syndrome is increased by 50% as compared with the control group.

[3] abbreviates: read-out: ED50 AB (dose leading to 50% avoidance block).
Setting [4] is: read-out: ED50 EB (dose leading to 50% escape block).
Setting [5] is: rat, p.o., punished FR10 phase, 60 min. prior to test, read-out: MEDPP (minimum effective dose, punished phase).
[6] abbreviates: rat, p.o., unpunished VI30 phase, 60 min. prior to test, read-out: MEDUP (minimum effective dose, unpunished phase).

In the case of `CCCCN1C(=O)C2C(=O)N(CCCCN3CCN(c4ccccc4OC)CC3)C(=O)C(C1=O)C2(C)C` [Compound 3107], the “Minimum Toxic Dose” value in the series on male mice (ip) is given as 200 mg/kg; in the series on male mice (po), greater than 300 mg/kg. Besides, the ED50 turned out to be 27 µmol/kg in the series on female Wistar rats [1] (setting [3]) and 70 µmol/kg in the series with female Wistar rats [1] (setting [4]). Besides, the minimal effective dose in the series with female Wistar rats [2] (setting [5]) came to 14.7 µmol/kg; in the series with female Wistar rats [2] (setting [6]) it was 147 µmol/kg.
Turning to `CCCCN1C(=O)C2C(=O)N(CCCCN3CCN(c4ccccc4OCC)CC3)C(=O)C(C1=O)C2(C)C` [Compound 3110], the “Minimum Toxic Dose” value in the series with male mice (ip) and with male mice (po) was greater than 300 mg/kg in each case. The figures for the ED50 with female Wistar rats [1] (setting [3]) and in the series on female Wistar rats [1] (setting [4]) were 50 µmol/kg and 200 µmol/kg, respectively. The minimal effective dose is 6.8 µmol/kg in the series on female Wistar rats [2] (setting [5]) and greater than 215 µmol/kg in the series on female Wistar rats [2] (setting [6]).
As to `CCCCN1C(=O)C2C(=O)N(CCCCN3CCN(c4ccc(F)cc4)CC3)C(=O)C(C1=O)C2(C)C` [Compound 3135], the “Minimum Toxic Dose” value in the series on male mice (ip) and with male mice (po) was greater than 300 mg/kg in each case. In addition, the “ED50, inducement of head-shaking-syndrome by interaction with 5-HTP” value (from here on “ED50, inducement”) in the series with male NMRI-mice is 72 µmol/kg.
Take `CCCCCCN1C(=O)C2C(=O)N(CCCCCN3CCN(c4ccccc4OC)CC3)C(=O)C(C1=O)C2(C)C` [Compound 3142]: the “ED50, inducement” value with male NMRI-mice was 74 µmol/kg.
Turning to `CCCCCCN1C(=O)C2C(=O)N(CCCCCN3CCN(c4cccc(C)c4)CC3)C(=O)C(C1=O)C2(C)C` [Compound 3143], the “Minimum Toxic Dose” value with male mice (ip) and in the series on male mice (po) was greater than 300 mg/kg each time. For the same molecule, the “ED50, inducement” value in the series with male NMRI-mice turned out to be 130 µmol/kg.
`CCCCN1C(=O)C2C(=O)N(CCCCN3CCN(c4ncccn4)CC3)C(=O)C(C1=O)C2(C)C` [Compound 3304]: the minimal effective dose with female Wistar rats [2] (setting [5]) was 21.5 µmol/kg; with female Wistar rats [2] (setting [6]), greater than 215 µmol/kg.
Regarding `CN1C(=O)CN=C(c2ccccc2)c2cc(Cl)ccc21` [Diazepam, reference compound], the minimal effective dose is 31.6 µmol/kg in the series on female Wistar rats [2] (Rattus norvegicus, read-out: MEDPP (minimum effective dose, punished phase)) and 46.4 µmol/kg in the series with female Wistar rats [2] (Rattus norvegicus, read-out: MEDUP (minimum effective dose, unpunished phase)).
